Test results reported in US20050245527A1, “Nitrogen containing heterocyclic compounds and medicines containing the same” (priority 2002, published 2005).

Experiments:
anesthetized dogs = experiment: Evaluation of cardiovascular dynamics and electrocardiogram in anesthetized dogs; assay type: in vivo, dog; conditions: single administration; for HR / LVdP/dt / PQ interval / QRS interval / QTc interval / mAP: percent change vs value prior to administration; for effects on the cardiovascular system: summary of Tables 4 to 8
Source text: <Evaluation of Cardiovascular Dynamics and Electrocardiogram in Anesthetized Dogs> Method Anesthetized dogs were used for the experiment. After isolating the […], a microchip pressure transducer catheter was inserted therein, and the tip was situated near the aortic orifice and in the left ventricle, for measurement of the arterial pressure (AP) and left ventricular pressure (LVP). The LVP was differentiated using a differentiation unit, and the maximum value of the first derivative of the left ventricular pressure ([…] used as the index of the […] contractility. The heart rate (HR) was measured using an instantaneous heart rate counter, with the LVP waveforms as the trigger. A needle electrode was fixed to the right anterior limb and left and right posterior limbs, and a standard II-lead electrocardiogram was taken. The parameters were recorded on a recording sheet. The test substance was administered through the venous catheter inserted in the femoral vein. Administration of Test Substance and Recording Single Administration: The test substance was administered through the catheter for 1 minute. The electrocardiogram was recorded at 2 minutes after administration, and the change in the cardiovascular dynamic was recorded continuously for 10 minutes after the administration. After 10 minutes, the dose was increased and the recording was repeated. Continuous Intravenous Infusion: The test substance was administered through the catheter for a period of one minute, and then a sustained dose was administered by continuous intravenous infusion. The electrocardiogram was recorded at the 5 and 10 minute points, and the change in cardiovascular dynamic was recorded continuously for 10 minutes from the start of administration. After 10 minutes, the dose was increased and the recording was repeated. Analysis The HR, mean arterial pressure (mAP), LVdP/dtmax and electrocardiogram parameters (RR interval, PQ interval, QRS interval, QT interval) were read from the recording sheet. The QT interval was heart rate-corrected and represented as the QTc interval.

[1] = system: left saphenous nerve of rats (ectopic firing); experiment: Inhibition of ectopic firing; assay type: in vivo; conditions: Rattus norvegicus, iv; rats with cut left saphenous nerve, urethane anesthesia, compound via catheter in right cervical vein, number of firings in 10 seconds; read-out: Inhibition of ectopic firing (ID50)
In short: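 Rat left saphenous nerve transected near the knee (~3 mm excised); recorded more than a week later under urethane (1 g/kg) anesthesia. Compound given via right cervical vein catheter. Ectopic firing recorded with platinum hook electrode, scored as number of firings in 10 seconds.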

| SMILES | HR (anesthetized dogs; dose 1 mg/kg weight) [%] | LVdP/dt (anesthetized dogs; dose 1 mg/kg weight) [%] | PQ interval (anesthetized dogs; dose 1 mg/kg weight) [%] | QRS interval (anesthetized dogs; dose 1 mg/kg weight) [%] | QTc interval (anesthetized dogs; dose 1 mg/kg weight) [%] | mAP (anesthetized dogs; dose 1 mg/kg weight) [%] | HR (anesthetized dogs; dose 3 mg/kg weight) [%] | LVdP/dt (anesthetized dogs; dose 3 mg/kg weight) [%] | PQ interval (anesthetized dogs; dose 3 mg/kg weight) [%] | QTc interval (anesthetized dogs; dose 3 mg/kg weight) [%] | mAP (anesthetized dogs; dose 3 mg/kg weight) [%] | effects on the cardiovascular system (anesthetized dogs) | also measured |
| --- | --- | --- | --- | --- | --- | --- | --- | --- | --- | --- | --- | --- | --- |
| O=C(NCC1CCCCN1)c1cc(OCC(F)(F)F)ccc1OCC(F)(F)F (stereo not drawn) [Flecainide] | −8.6 | −18.2 | 8.8 | 6.4 | 2.3 | −14.2 | −24.8 | −56.9 | 36.1 | 9.3 | −42.9 | exhibited effects on the cardiovascular system | QRS interval (anesthetized dogs; dose 3 mg/kg weight): 37.1% |
| CN(C)CCC=C1c2ccccc2CCc2ccccc21 [Amitriptyline] | −4.0 | −21.7 | 8.7 | 15.4 | 13.1 | −25.4 | – | – | – | – | – | exhibited effects on the cardiovascular system | HR (anesthetized dogs; dose 0.3 mg/kg weight): −2.9%; LVdP/dt (anesthetized dogs; dose 0.3 mg/kg weight): −5.9%; PQ interval (anesthetized dogs; dose 0.3 mg/kg weight): −1.5%; QRS interval (anesthetized dogs; dose 0.3 mg/kg weight): 0.4%; QTc interval (anesthetized dogs; dose 0.3 mg/kg weight): 1.9%; mAP (anesthetized dogs; dose 0.3 mg/kg weight): −0.9% |
| Cc1cccc(C)c1OCC(C)N (stereo not drawn) [Mexiletine] | – | – | – | – | – | – | – | – | – | – | – | exhibited effects on the cardiovascular system | ED50 [1]: 1 to 3 mg/kg; HR (anesthetized dogs; dose 2.2 mg/kg weight): −2.8%; LVdP/dt (anesthetized dogs; dose 2.2 mg/kg weight): −20.8%; PQ interval (anesthetized dogs; dose 2.2 mg/kg weight): 0.7%; QRS interval (anesthetized dogs; dose 2.2 mg/kg weight): 1.8%; QTc interval (anesthetized dogs; dose 2.2 mg/kg weight): −3.0%; mAP (anesthetized dogs; dose 2.2 mg/kg weight): −6.2%; HR (anesthetized dogs; dose 6.6 mg/kg weight): −10.6%; LVdP/dt (anesthetized dogs; dose 6.6 mg/kg weight): −47.8%; PQ interval (anesthetized dogs; dose 6.6 mg/kg weight): 3.4%; QRS interval (anesthetized dogs; dose 6.6 mg/kg weight): 6.3%; QTc interval (anesthetized dogs; dose 6.6 mg/kg weight): −4.6%; mAP (anesthetized dogs; dose 6.6 mg/kg weight): −44.2% |
| Cc1cccc(C)c1NC(=O)CC12CCCN1CCC2 [Pilsicainide] | −1.0 | −20.6 | 17.4 | – | 4.6 | −3.2 | −5.0 | −31.7 | 55.1 | 5.3 | −8.2 | exhibited effects on the cardiovascular system | – |
